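Cultured in 96-well plates, cells were exposed to test compound for 48 hours across five concentrations. GI50 = concentration required for 50% inhibition of growth.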 The source made the active and inactive calls. No stated cut-off is given here; in the data, active = GI50 up to about 1.1 µM and inactive = higher.
Columns and labels:
Assay in all cases: DTP human tumour cell line panel, 48 h
DU-145 = system: DU-145
SK-OV-3 = system: SK-OV-3
NCI-H522 = system: NCI-H522
RXF 393 = system: RXF 393
Hs-578T = system: Hs-578T
MDA-MB-231 = system: MDA-MB-231
OVCAR-8 = system: OVCAR-8
SK-MEL-28 = system: SK-MEL-28
UO-31 = system: UO-31
K562 = system: K562
SN12C = system: SN12C
OVCAR-4 = system: OVCAR-4
SF-268 = system: SF-268
BT-549 = system: BT-549
U-251 = system: U-251
SK-MEL-2 = system: SK-MEL-2
T47D = system: T47D
IGROV-1 = system: IGROV-1
Malme-3M = system: Malme-3M
MDA-N = system: MDA-N

Row | Structure (SMILES) | GI50 (DU-145) | GI50 (SK-OV-3) | GI50 (NCI-H522) | GI50 (RXF 393) | GI50 (Hs-578T) | GI50 (MDA-MB-231) | GI50 (OVCAR-8) | GI50 (SK-MEL-28) | GI50 (UO-31) | GI50 (K562) | GI50 (SN12C) | GI50 (OVCAR-4) | GI50 (SF-268) | GI50 (BT-549) | GI50 (U-251) | GI50 (SK-MEL-2) | GI50 (T47D) | GI50 (IGROV-1) | GI50 (Malme-3M) | GI50 (MDA-N)
1 | COc1cc2c(/C=C3/C(=O)Nc4ccc(O)cc43)c(Cl)[nH]c2cc1C | 0.245 µM (active) | 0.0627 µM (active) | 0.146 µM (active) | 0.176 µM (active) | 0.0989 µM (active) | 0.283 µM (active) | 0.281 µM (active) | 0.0149 µM (active) | 0.728 µM (active) | 0.0382 µM (active) | 0.197 µM (active) | 0.562 µM (active) | 0.927 µM (active) | 0.139 µM (active) | 0.0521 µM (active) | 0.883 µM (active) | 0.0462 µM (active) | 0.441 µM (active) | 0.0398 µM (active) | –
2 | Cc1cc(C)c2c(c1)CC1(Cc3c(C)cc(C)cc3C1=O)C2=O (configuration not stated) | > 100 µM (inactive) | – | > 100 µM (inactive) | > 100 µM (inactive) | > 100 µM (inactive) | > 100 µM (inactive) | > 100 µM (inactive) | > 100 µM (inactive) | > 100 µM (inactive) | > 100 µM (inactive) | > 100 µM (inactive) | 46.3 µM (inactive) | > 100 µM (inactive) | > 100 µM (inactive) | > 100 µM (inactive) | > 100 µM (inactive) | – | 84.5 µM (inactive) | 92.9 µM (inactive) | > 100 µM (inactive)
3 | Cc1cc(=O)oc2cc(OCC(O)COC(C)C)ccc12 (configuration not stated) | > 100 µM (inactive) | > 100 µM (inactive) | > 100 µM (inactive) | – | 97.1 µM (inactive) | > 100 µM (inactive) | > 100 µM (inactive) | > 100 µM (inactive) | > 100 µM (inactive) | > 100 µM (inactive) | > 100 µM (inactive) | 59.2 µM (inactive) | > 100 µM (inactive) | – | > 100 µM (inactive) | – | > 100 µM (inactive) | > 100 µM (inactive) | > 100 µM (inactive) | 91.4 µM (inactive)
4 | CCOC(=O)C(CO)c1nc2c([nH]c1=O)c(=O)n(C)c(=O)n2C (configuration not stated) | > 100 µM (inactive) | – | > 100 µM (inactive) | – | > 100 µM (inactive) | > 100 µM (inactive) | > 100 µM (inactive) | > 100 µM (inactive) | > 100 µM (inactive) | > 100 µM (inactive) | > 100 µM (inactive) | – | > 100 µM (inactive) | > 100 µM (inactive) | > 100 µM (inactive) | > 100 µM (inactive) | 13.7 µM (inactive) | > 100 µM (inactive) | > 100 µM (inactive) | –
5 | O=c1c2c3c(sc2nc2n1sc1nc4sc5c(c4c(=O)n12)CCCC5)CCCC3 | > 44.8 µM (inactive) | 99.1 µM (inactive) | 10.8 µM (inactive) | 21 µM (inactive) | 39.6 µM (inactive) | 25.9 µM (inactive) | 56.6 µM (inactive) | > 80.5 µM (inactive) | 18.5 µM (inactive) | 25.1 µM (inactive) | > 87.1 µM (inactive) | 18.7 µM (inactive) | 42 µM (inactive) | 21.9 µM (inactive) | > 83 µM (inactive) | > 100 µM (inactive) | – | > 100 µM (inactive) | – | > 51.3 µM (inactive)
6 | CC(=O)OC1CCN(C(=O)c2ccccc2)CC1CC1(c2cc3ccccc3[nH]2)OCCO1 (configuration not stated) | > 100 µM (inactive) | > 100 µM (inactive) | 78.9 µM (inactive) | > 100 µM (inactive) | – | > 100 µM (inactive) | 73.1 µM (inactive) | > 100 µM (inactive) | 29 µM (inactive) | 30.1 µM (inactive) | 84.3 µM (inactive) | 77.3 µM (inactive) | – | – | 77.4 µM (inactive) | > 100 µM (inactive) | 34 µM (inactive) | 61.2 µM (inactive) | > 100 µM (inactive) | 39.2 µM (inactive)
7 | CSc1cc(Cl)c(C)cc1S(=O)(=O)NC(=O)NNc1ccc(C)cc1 | 48.9 µM (inactive) | 68.9 µM (inactive) | > 100 µM (inactive) | > 100 µM (inactive) | > 100 µM (inactive) | > 100 µM (inactive) | > 100 µM (inactive) | > 100 µM (inactive) | – | > 100 µM (inactive) | > 100 µM (inactive) | > 100 µM (inactive) | > 100 µM (inactive) | – | > 100 µM (inactive) | 93.3 µM (inactive) | 61.9 µM (inactive) | > 100 µM (inactive) | > 100 µM (inactive) | > 100 µM (inactive)
8 | CC12CCC([C@H](Nc3cc(C(F)(F)F)cc(C(F)(F)F)c3)C1=O)C2(C)C (some centres not stated) | > 100 µM (inactive) | > 100 µM (inactive) | – | 0.0162 µM (active) | – | > 100 µM (inactive) | > 100 µM (inactive) | > 100 µM (inactive) | > 100 µM (inactive) | > 100 µM (inactive) | – | > 100 µM (inactive) | > 100 µM (inactive) | > 100 µM (inactive) | – | > 100 µM (inactive) | > 100 µM (inactive) | 47.3 µM (inactive) | > 100 µM (inactive) | –
9 | O=C(c1cc2ccccc2cc1O)N1CCCCC1 | 64.1 µM (inactive) | 42.2 µM (inactive) | – | 51.1 µM (inactive) | 46 µM (inactive) | 68.2 µM (inactive) | 20.8 µM (inactive) | 41.8 µM (inactive) | 40.5 µM (inactive) | 21.6 µM (inactive) | – | 37.7 µM (inactive) | 36.1 µM (inactive) | 35.2 µM (inactive) | 52.4 µM (inactive) | 17.3 µM (inactive) | 37.6 µM (inactive) | 13.5 µM (inactive) | – | –
10 | CN1C2CCC1C(CO)C(=O)C2 (configuration not stated) | > 100 µM (inactive) | > 100 µM (inactive) | 16.1 µM (inactive) | 57.4 µM (inactive) | > 100 µM (inactive) | > 100 µM (inactive) | 50.9 µM (inactive) | > 100 µM (inactive) | – | 24.6 µM (inactive) | – | > 100 µM (inactive) | > 100 µM (inactive) | > 100 µM (inactive) | > 100 µM (inactive) | > 100 µM (inactive) | 21 µM (inactive) | > 100 µM (inactive) | 28.9 µM (inactive) | –
11 | CCOC(=O)c1c[nH]c2c(ccc3ncccc32)c1=O | – | > 100 µM (inactive) | > 100 µM (inactive) | > 100 µM (inactive) | – | – | > 100 µM (inactive) | > 100 µM (inactive) | > 100 µM (inactive) | > 100 µM (inactive) | > 100 µM (inactive) | > 100 µM (inactive) | > 100 µM (inactive) | – | > 100 µM (inactive) | > 100 µM (inactive) | – | > 100 µM (inactive) | > 100 µM (inactive) | –
12 | COc1ccc(CCNC(=O)Cc2ccccc2CCO)cc1OC | > 100 µM (inactive) | > 100 µM (inactive) | > 100 µM (inactive) | > 100 µM (inactive) | > 100 µM (inactive) | 38.8 µM (inactive) | > 100 µM (inactive) | 52.7 µM (inactive) | > 100 µM (inactive) | > 100 µM (inactive) | > 100 µM (inactive) | 41.8 µM (inactive) | > 100 µM (inactive) | > 100 µM (inactive) | > 100 µM (inactive) | > 100 µM (inactive) | > 100 µM (inactive) | > 100 µM (inactive) | – | –
13 | CC(C)(C)c1cc(C(=O)/C=C/c2ccc3c(c2)CCO3)cc(C(C)(C)C)c1O | 1.39 µM (inactive) | 1.64 µM (inactive) | 0.323 µM (active) | 0.216 µM (active) | 1.32 µM (inactive) | 2.28 µM (inactive) | 1.63 µM (inactive) | > 83 µM (inactive) | 1.2 µM (inactive) | 0.938 µM (active) | 2.99 µM (inactive) | 0.869 µM (active) | 2.58 µM (inactive) | 1.8 µM (inactive) | 0.94 µM (active) | 1.29 µM (inactive) | 4.86 µM (inactive) | 2.29 µM (inactive) | > 100 µM (inactive) | –
14 | CC/C=C/C(CC)C/C(C)=C\[C@]1(CC)C[C@H](CC)[C@H](CC(=O)O)OO1 (some centres not stated) | 0.451 µM (active) | 1.9 µM (inactive) | 0.178 µM (active) | – | 2.26 µM (inactive) | 1.76 µM (inactive) | 1.09 µM (active) | – | 0.0157 µM (active) | 0.355 µM (active) | 1.59 µM (inactive) | – | 1.39 µM (inactive) | – | 0.491 µM (active) | 1.74 µM (inactive) | 1.34 µM (inactive) | 0.0612 µM (active) | – | 1.36 µM (inactive)
15 | Cc1ccc2c(O)cc(-c3cccc(Cl)c3)nc2n1 | 0.194 µM (active) | 0.0411 µM (active) | < 0.01 µM (active) | – | 0.028 µM (active) | 0.0537 µM (active) | 0.115 µM (active) | 0.0916 µM (active) | 0.902 µM (active) | < 0.0169 µM (active) | – | > 62.1 µM (inactive) | 0.59 µM (active) | 0.278 µM (active) | 0.0308 µM (active) | 0.0324 µM (active) | – | 0.0155 µM (active) | 0.0661 µM (active) | 1 µM (active)
16 | Cc1c2ccncc2c(C)c2c1[nH]c1ccc(Oc3ccccc3)cc12 | – | 6.46 µM (inactive) | 2.37 µM (inactive) | 1.86 µM (inactive) | – | – | 2.03 µM (inactive) | 3.09 µM (inactive) | 11 µM (inactive) | 1.92 µM (inactive) | 1.81 µM (inactive) | 2.62 µM (inactive) | 3.39 µM (inactive) | – | 1.67 µM (inactive) | 1.66 µM (inactive) | – | 4.13 µM (inactive) | 1.79 µM (inactive) | –
17 | Cc1c(O)c(=O)ccn1CCN | – | > 100 µM (inactive) | > 100 µM (inactive) | > 100 µM (inactive) | – | – | > 100 µM (inactive) | > 100 µM (inactive) | > 100 µM (inactive) | > 100 µM (inactive) | > 100 µM (inactive) | > 100 µM (inactive) | > 100 µM (inactive) | – | > 100 µM (inactive) | > 100 µM (inactive) | – | > 100 µM (inactive) | > 100 µM (inactive) | –

Source: ChEMBL document CHEMBL1201862, “PubChem BioAssay data set” (2004)
